# Where a name gives a salt, the structure may show the parent alone.
# Key:
# [1] = test system: CO2-induced amnesia in mice; test: Effect on CO2-induced amnesia in mice (passive avoidance response); format: in vivo, mice (male ICR); details: p.o.; for Anti-amnesia (latency, percent change of the mean time of the vehicle-treated control group): 30 min before the test, saline = 100; for minimal effective dose: Mus musculus, po, mice, read-out: Anti-amnesia MED (minimum effective dose for CO2-induced amnesia)
# Description: Effect on CO2 -induced amnesia in mice Effect of the compound (I) on […] of passive avoidance response, induced by exposing mice to 100% CO2 gas, was evaluated. Male ICR mice (Japan Clea) aged 5 weeks were used. The experimental apparatus consisted of two chambers, in which one illuminated chamber (9×9×25 cm) was connected to a dark chamber (25×25×30 cm) with a guillotine door. Each mouse was placed in the illuminated chamber and then allowed to enter the dark one. When the mouse entered the dark chamber, the door was closed and AC 0.5 mA footshock was applied to the floor grid of the dark chamber. The mouse can memorize the experience after receiving the uncomfortable stimulus for a few weeks. Next, the consolidation processes of memory were disturbed by an experimental manipulation: Each mouse was placed under the hypoxic condition by being placed into a 4L desiccator filled with 100% CO2 gas, immediately after receiving the footshock in the dark chamber. When his respiratory function was stopped, the mouse was taken out from the desiccator and given an artificial respiration till recovering spontaneous respiration. This procedure disturbed the consolidation of the memory (experience of footshock). On the next day, a retention test was performed to see whether the mouse memorized the footshock or not. In the test, the mouse was again placed in the illuminated compartment and the latency to enter the dark compartment was measured. The mice subjected to hypoxia entered the dark compartment with short latency, 10-20 sec. […] The ameliorating effect of compounds on the amnesia induced by hypoxia was evaluated by the latency time, and was expressed as the percent change of the mean time of the vehicle-treated control group (Table 6.).
# mice = test: General Symptoms (Side Effects) in mice; format: in vivo; parameters: key: +++: marked; ++: moderate; +: mild; -: nondetected; details: i.p., observed for 4 hours; for Hypothermia / Sedation / Tremor: central effect; for Diarrhea / Mydriasis / Salivation: peripheral effect
# Description: General Symptoms (Side Effects) Four mice were used for each group. Mice were placed in stainless steel cages (13×18×25 cm) and after a 1-hr habitation period the compounds were administered. […] Peripheral and central effects of the compounds were estimated with the incidences of diarrhea, salivation and mydriasis and with the incidences of tremor and sedation and a grade of hypothermia, respectively. The compounds which were soluble in saline were solubilized in saline and the other were suspended in 5% arabic gum solution. Each compound was administered intraperitoneally (i.p.).
# [2] = LD50 value and Therapeutic index; details: mouse, in vivo, po; for LD50: mice; for selectivity ratio: ratio of LD50 value to MED for CO2-induced amnesia
# Text: LD50 value and Therapeutic index
# Ten mice were used for each group. LD50 value and therapeutic index were estimated with the dose (mg/kg, p.o.) which induced death in 50% of mice and with a ratio of LD50 value to a minimum effective dose (MED) for CO2 -induced amnesia, respectively.
# [3] = dose 0.3 mg/kg, * P < 0.05, ** P < 0.01
Structure (SMILES),"Anti-amnesia (latency, percent change of the mean time of the vehicle-treated control group) ([1]; dose 0.1 mg/kg, * P < 0.05)",Hypothermia (mice),Sedation (mice),Tremor (mice),Diarrhea (mice),Mydriasis (mice),Salivation (mice),LD50 [2],selectivity ratio [2],minimal effective dose [1],"Anti-amnesia (latency, percent change of the mean time of the vehicle-treated control group) [1, 3]","Anti-amnesia (latency, percent change of the mean time of the vehicle-treated control group) ([1]; dose 1.0 mg/kg, * P < 0.05)"
"CON1C(=O)CC2(CCN(C)CC2)C1=O.Cl [Example 1, 2-Methoxy-8-methyl-2,8-diazaspiro[4,5]decane-1,3-dione hydrochloride]",277%,-,++,++,-,-,+++,,,,,
"CON1C(=O)CC2(CCNCC2)C1=O [Example 9, 2-Methoxy-2,8-diazaspiro[4,5]decane-1,3-dionehydrochloride]",227%,+,++,-,++,-,+++,2010 mg/kg,20100,0.1 mg/kg,321%,
"CON1C(=O)CC2(CCN(C(=O)OCCBr)CC2)C1=O [Example 22, 8-(2-Bromoethoxycarbonyl)-2-methoxy-2,8-diazaspiro[4,5]decane-1,3-dione]",,+,+,-,+,+,+,,,,,311%
"CCN1C(=O)CC2(CCN(C)CC2)C1=O [RS-86, reference compound]",,+++,+++,+,+++,++,+++,574 mg/kg,1910,0.3 mg/kg,258%,
